Laboratory results published in the supplement of paper PMC13207355.

How the values were obtained:
Settings in all cases: exposure time: 72 h
E28 [1] = patient-derived glioblastoma stem cells of classical subtype; experiment: surviving fraction (nuclei count normalised to DMSO); higher = more cells surviving (less toxic)
E13 [2] = patient-derived glioblastoma stem cells of classical subtype; experiment: as above
E57 [3] = patient-derived glioblastoma stem cells of mesenchymal subtype; experiment: as above
E21 [4] = patient-derived glioblastoma stem cells of mesenchymal subtype; experiment: as above
E31 [5] = patient-derived glioblastoma stem cells of proneural subtype; experiment: as above
FT3469 [6] = normal neural stem cell line; experiment: as above
E34 [7] = patient-derived glioblastoma stem cells of proneural subtype; experiment: as above
E28 [8] = experiment: phenotypic distance (Euclidean, principal components) from DMSO controls (arbitrary units); higher = stronger morphological change
E13 [9] = experiment: as above
E57 [10] = experiment: as above
E21 [11] = experiment: as above
E31 [12] = experiment: as above
FT3469 [13] = experiment: as above
E34 [14] = experiment: as above
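Throughout, for phenotypic distance (Euclidean, principal components) from DMSO controls: cell Painting imaging in 384-well plates, CellProfiler features reduced to at least 20 principal components, Euclidean distance versus same-plate DMSO vehicle wells (0.1% v/v), median over six images per well.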
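Throughout, for surviving fraction (nuclei count normalised to DMSO): nuclei counted by high-content imaging of Hoechst-stained cells in laminin-coated 384-well plates, relative to 0.1% DMSO vehicle wells, with staurosporine as cell-death control.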

C[C@@H](Oc1cc(-c2cnn(C3CCNCC3)c2)cnc1N)c1c(Cl)ccc(F)c1Cl [Crizotinib]
Settings | phenotypic distance | surviving fraction
E13 [2], 4.1 nM | – | 0.978
E13 [2], 12.3 nM | – | 0.948
E13 [2], 37 nM | – | 0.972
E13 [2], 111.1 nM | – | 0.863
E13 [2], 333.3 nM | – | 0.881
E13 [2], 1000 nM | – | 0.849
E13 [2], 3000 nM | – | 0.482
E13 [9], 4.1 nM | 0.499 | –
E13 [9], 12.3 nM | 0.452 | –
E13 [9], 37 nM | 0.936 | –
E13 [9], 111.1 nM | 0.626 | –
E13 [9], 333.3 nM | 0.58 | –
E13 [9], 1000 nM | 1.09 | –
E13 [9], 3000 nM | 3.75 | –
E21 [4], 4.1 nM | – | 0.907
E21 [4], 12.3 nM | – | 0.826
E21 [4], 37 nM | – | 1.02
E21 [4], 111.1 nM | – | 0.883
E21 [4], 333.3 nM | – | 0.986
E21 [4], 1000 nM | – | 0.78
E21 [4], 3000 nM | – | 0.472
E21 [11], 4.1 nM | 0.599 | –
E21 [11], 12.3 nM | 1.58 | –
E21 [11], 37 nM | 0.706 | –
E21 [11], 111.1 nM | 0.783 | –
E21 [11], 333.3 nM | 0.751 | –
E21 [11], 1000 nM | 1.37 | –
E21 [11], 3000 nM | 3.3 | –
E28 [1], 4.1 nM | – | 1.02
E28 [1], 12.3 nM | – | 0.941
E28 [1], 37 nM | – | 0.83
E28 [1], 111.1 nM | – | 0.923
E28 [1], 333.3 nM | – | 0.96
E28 [1], 1000 nM | – | 0.837
E28 [1], 3000 nM | – | 0.326
E28 [8], 4.1 nM | 0.935 | –
E28 [8], 12.3 nM | 0.741 | –
E28 [8], 37 nM | 1.91 | –
E28 [8], 111.1 nM | 0.725 | –
E28 [8], 333.3 nM | 0.457 | –
E28 [8], 1000 nM | 0.886 | –
E28 [8], 3000 nM | 2.74 | –
E31 [5], 4.1 nM | – | 0.998
E31 [5], 12.3 nM | – | 1.05
E31 [5], 37 nM | – | 0.891
E31 [5], 111.1 nM | – | 0.884
E31 [5], 333.3 nM | – | 1.13
E31 [5], 1000 nM | – | 0.96
E31 [5], 3000 nM | – | 0.472
E31 [12], 4.1 nM | 0.339 | –
E31 [12], 12.3 nM | 0.524 | –
E31 [12], 37 nM | 0.734 | –
E31 [12], 111.1 nM | 0.728 | –
E31 [12], 333.3 nM | 0.762 | –
E31 [12], 1000 nM | 1.01 | –
E31 [12], 3000 nM | 3.13 | –
E34 [7], 4.1 nM | – | 0.973
E34 [7], 12.3 nM | – | 0.985
E34 [7], 37 nM | – | 0.786
E34 [7], 111.1 nM | – | 1.1
E34 [7], 333.3 nM | – | 0.933
E34 [7], 1000 nM | – | 0.88
E34 [7], 3000 nM | – | 0.565
E34 [14], 4.1 nM | 0.825 | –
E34 [14], 12.3 nM | 0.797 | –
E34 [14], 37 nM | 0.989 | –
E34 [14], 111.1 nM | 0.934 | –
E34 [14], 333.3 nM | 0.571 | –
E34 [14], 1000 nM | 1.16 | –
E34 [14], 3000 nM | 2.7 | –
E57 [3], 4.1 nM | – | 1.03
E57 [3], 12.3 nM | – | 0.937
E57 [3], 37 nM | – | 1.01
E57 [3], 111.1 nM | – | 0.957
E57 [3], 333.3 nM | – | 1.04
E57 [3], 1000 nM | – | 0.857
E57 [3], 3000 nM | – | 0.477
E57 [10], 4.1 nM | 0.221 | –
E57 [10], 12.3 nM | 1.2 | –
E57 [10], 37 nM | 0.43 | –
E57 [10], 111.1 nM | 0.517 | –
E57 [10], 333.3 nM | 0.355 | –
E57 [10], 1000 nM | 0.883 | –
E57 [10], 3000 nM | 4.09 | –
FT3469 [6], 4.1 nM | – | 0.854
FT3469 [6], 12.3 nM | – | 1.03
FT3469 [6], 37 nM | – | 1.09
FT3469 [6], 111.1 nM | – | 1.09
FT3469 [6], 333.3 nM | – | 0.941
FT3469 [6], 1000 nM | – | 0.891
FT3469 [6], 3000 nM | – | 0.574
FT3469 [13], 4.1 nM | 0.558 | –
FT3469 [13], 12.3 nM | 0.592 | –
FT3469 [13], 37 nM | 0.496 | –
FT3469 [13], 111.1 nM | 0.573 | –
FT3469 [13], 333.3 nM | 0.58 | –
FT3469 [13], 1000 nM | 0.774 | –
FT3469 [13], 3000 nM | 2.09 | –
